# Assay results: patent publication US11266645B2, “Methods for treating lymphoma” (Alexion Pharmaceuticals, Inc., priority 2018, dated 2022)
# Read-outs that look alike come from different tables or passages of the source.
# Key:
# [1] = system: serum markers of inflammation; assay: Serum protein markers of inflammation (multiplexed luminex); assay type: in vivo, human
# Experimental: Whole blood for isolation of serum was collected prior to dosing on days 1, 8, and 28 to measure changes in protein markers of inflammation and immune function. Serum samples were snap-frozen on dry ice immediately following its separation and stored at −80° C. Samples were analyzed using a multiplexed luminex-based technology (Myriad RBM, Austin, Tex.), utilizing the companies ImmunoMap (40 analytes) and InflammationMap (45 analytes) platforms. Serum from healthy donors was used as control.
# The data were analyzed using the statistical language R and the accessory packages ggplot2 (Wickham, H., Elegant Graphics for Data Analysis. 2016: Springer-Verlag) and drc (Ritz, C., et al., Dose-Response Analysis Using R. PLoS One, 2015. 10(12): p. e0146021). For cell signaling assays, percent inhibition was determined by normalizing the receptor-induced phosphorylation events mean fluorescent intensity (MFI) to that of pre-dose receptor-induced MFI. The resulting relative activities were analyzed by nonlinear regression to a 3-parameter log-logistic function with an upper and lower limit set at 100 and 0%. For the analysis of immune and inflammation markers in serum, the varying concentration units were converted to a common scale in pg/mL. Values below and in excess of the detection limit were replaced by half the detection limit and the upper limit, respectively. For missing values, the median value for each marker from the treatment group was imputed. Statistically significant differences between the healthy and patient serum marker at all cycles (Cycle 1 Day 1, Cycle 1 Day 8, and Cycle 2 Day 1) were detected by paired t test. Dimension reduction of expression of the biomarker table in healthy and patient serum was performed using linear discriminant analysis, as is implemented in R. For the biomarkers and tumor response, reduction in biomarker after treatment was normalized to that before treatment and correlated to the maximal tumor response (growth or reduction), representing the ratio of minimal tumor area following treatment and tumor area before treatment. The significance of the relation between maximum tumor response and change in a specific biomarker was evaluated using Spearman-Rank-correlation and p value.
# [2] = system: Follicular lymphoma (FL) cell lines SU-DHL6, DOHH2, WSU-FSCCL; assay: FL cell line assays (CellTiter Glo, Edu, caspase 3, immunoblot, phosphoflow); assay type: cell-based, human
# Experimental: CellTiter Glo, Edu and caspase 3 assays were used to examine the effects of cerdulatinib alone and in combination with venetoclax. Percent inhibition was determined relative to vehicle control. Edu incorporation and caspase 3 cleavage were performed using FACS-based assays and CellTiter Glo in a 96-well black plate.
# Follicular lymphoma (FL) cell lines SU-DHL6, DOHH2, or WSU-FSCCL were treated with cerdulatinib in the presence or absence of venetoclax at the indicated concentrations for 24-72 hours and analyzed by Edu, CellTiter-Glo, Annexin V/PI, and CellTiter-Glo).
# Whole cell lysates were subjected to immunoblotting on 12% gels and probed with the indicated antibodies using established protocols. Phosphoflow cytometry was performed on an LSRII following cell fixing in 4% PFA and permeabilzation with 50% methanol. Phospho-antibody staining was performed for 1 hour at room temperature.
# [3] = Food and proton pump inhibitor crossover PK study in healthy subjects; assay type: in vivo, human; conditions: 30 mg oral; for Cmax / AUC(0-inf) / half-life / Tmax: human; for Cmax / AUC(0-inf): po, 30 mg; for AUC(0-inf): read-out: AUC0−inf Mean; for half-life: read-out: T1/2 Mean (converted); for Tmax: read-out: Tmax Median
# Experimental: In an open-label, randomized, 3-period crossover study, healthy subjects received 30 mg cerdulatinib orally. The 3-period treatments were fasted, high-fat diet, and proton pump inhibitor (PPI) esomaprazole, with 14-day washout between treatments. Blood samples were collected up to 72 hours after cerdulatinib treatment. PK endpoints were area under the curve (AUC), maximum concentration (Cmax), Time to Cmax (Tmax), and half-live (T1/2).
# [4] = system: patients with relapsed/refractory Follicular Lymphoma; assay: Phase 2a dose expansion study in relapsed/refractory follicular lymphoma, single agent and with rituximab; assay type: in vivo, human
# Experimental: Methods: This is a phase 2a dose expansion study was carried out with cerdulatinib dosed 30 mg orally BID in patients with relapsed/refractory (r/r) B cell lymphoma. Dose reductions were permitted to a minimum of 15 mg BID. Responses of patients to the cerdulatinib treatment and cerdulatinib rituximab combination treatment were assessed by Lugano Classification criteria.
# A total of 40 patients were enrolled in the single arm, cerdulatinib treatment cohort and 11 patients were enrolled in the cerdulatinib rituximab combination cohort. Median age was 64 (42-81) and median number of prior therapies was three (1-8). 50 (98%) patients had prior anti-CD20 therapy and 8 (16%) patients had prior PI3K or BTK inhibitors. The most common adverse effects (AEs) of any grade were diarrhea (47%), nausea (37%), lipase increase (29%) and amylase increase (22%). Grade 3+ AEs occurring in more than 5% patients are lipase increase (24%), diarrhea (12%), amylase increase (10%), nausea (8%), hypertension (8%), and neutropenia (6%). Grade 3+ infections occurred in 6 (12%) of patients. One patient had Grade 5 multi-organ failure potentially related to study drug. Amylase and lipase elevations generally were not associated with abdominal pain or pancreatitis. The safety profile in the combination cohort appeared to be similar to what is seen with single-agent cerdulatinib.
# [5] = system: patients with relapsed/refractory Follicular Lymphoma; conditions: r/r FL, single agent; cited from earlier work
# [6] = single arm cohort, out of 40 patients
smiles,measurement,setting,value
"CCS(=O)(=O)N1CCN(c2ccc(Nc3ncc(C(N)=O)c(NC4CC4)n3)cc2)CC1 [cerdulatinib, 4-(cyclopropylamino)-2-((4-(4-(ethylsulfonyl)piperazin-1-yl)phenyl)amino)pyrimidine-5-carboxamide]","serum MIP30, CRP, and VCAM1",[1]; CLL/SLL and FL patients,significantly reduced
same,MPO and CD40 serum levels,"[1]; CLL/SLL patients, reduced at baseline",normalized
same,serum BDNF,"[1]; FL patients, reduced at baseline",normalized
same,inhibition of serum inflammation markers,[1]; aggressive lymphomas (DLBCL/MCL),Limited inhibition
same,"serum HCC4, IL18, and MIG","[1]; elevated at baseline, both patient groups",unaffected
same,"basal expression of phospho (p)AKT and pERK, anti-IgM and anti-IgG mediated signaling",[2]; FL cell lines,inhibit
same,Bcl-2 expression,[2]; FL lines,minimal impact
same,Bim RNA level,[2]; WSU and DHL6 cells,increased
same,Mcl-1 RNA levels,[2]; cerdulatinib alone,remained unchanged
same,Mcl-1 expression,[2]; most pronounced in WSU-FSCCL cells,down modulation
same,AUC0−inf Ratio Fed/Fasted,[3],1.16
same,AUC0−inf Ratio PPI/Fasted,[3],1.06
same,Cmax Ratio Fed/Fasted,[3],1.11
same,Cmax Ratio PPI/Fasted,[3],1.02
same,T1/2 Mean,[3]; Fasted,14.5 h
same,Cmax,"[3]; blood, Fed (high-fat diet)",187 ng/mL
same,AUC(0-inf),"[3]; blood, Fed (high-fat diet)",4060 ng·h/mL
same,half-life,"[3]; blood, Fed (high-fat diet)",13.6 h
same,Tmax,"[3]; blood, Fed (high-fat diet)",6 h
same,Cmax,"[3]; in vivo, Fasted",168 ng/mL
same,AUC(0-inf),"[3]; in vivo, Fasted",3460 ng·h/mL
same,Cmax,"[3]; in vivo, PPI (esomaprazole)",170 ng/mL
same,AUC(0-inf),"[3]; in vivo, PPI (esomaprazole)",3680 ng·h/mL
same,half-life,"[3]; in vivo, PPI (esomaprazole)",14.5 h
same,Tmax,"[3]; in vivo, PPI (esomaprazole)",4 h
same,AEs of any grade: amylase increase,"[4]; r/r FL, both cohorts together",22%
same,AEs of any grade: lipase increase,"[4]; r/r FL, both cohorts together",29%
same,AEs of any grade: nausea,"[4]; r/r FL, both cohorts together",37%
same,Grade 3+ AEs: amylase increase,"[4]; r/r FL, both cohorts together",10%
same,Grade 3+ AEs: diarrhea,"[4]; r/r FL, both cohorts together",12%
same,Grade 3+ AEs: hypertension,"[4]; r/r FL, both cohorts together",8%
same,Grade 3+ AEs: lipase increase,"[4]; r/r FL, both cohorts together",24%
same,Grade 3+ AEs: nausea,"[4]; r/r FL, both cohorts together",8%
same,Grade 3+ AEs: neutropenia,"[4]; r/r FL, both cohorts together",6%
same,Grade 3+ infections,"[4]; r/r FL, both cohorts together",12%
same,patients with Grade 5 multi-organ failure potentially related to study drug,"[4]; r/r FL, both cohorts together",One
same,AEs of any grade: diarrhea,"[4]; r/r FL, single-agent and rituximab combination cohorts together",47%
same,ORR,"[4]; single arm cohort, 40 patients",46%
same,"CRs, number of patients",[4]; [6],5
same,"PRs, number of patients",[4]; [6],13
same,"ORR, previously reported",[5],~45%
